Reference: ChEMBL document CHEMBL4765340, “Novel potent antiplatelet thrombotic agent derived from biguanide for ischemic stroke” (Eur J Med Chem, 2020)

How the values were obtained:
[1] = Inhibition of thrombin-induced platelet aggregation in mouse platelet isolated from C57BL/6J mouse treated at 200 mg/kg, ig twice a day for 7 days by lumi-aggregometer; assay type: functional; settings: po, 168 h, time 7 day
[2] = system: Mus musculus; assay: Antithrombotic activity in collagen-epinephrine induced pulmonary thromboembolism mouse model assessed as protection rate at 200 mg/kg, ig twice a day for 7 days followed by administered collagen-epinephrine relative to control; assay type: functional; settings: time 7 day
[3] = Apparent clearance during terminal phase in Sprague-Dawley rat at 200 mg/kg, po measured by HPLC-MS/MS analysis; assay type: ADME, organism-based; settings: in vivo
[4] = AUC (0 to infinity) in Sprague-Dawley rat at 200 mg/kg, po measured by HPLC-MS/MS analysis; assay type: ADME, organism-based; set-up: time infinity, route oral, dose 200 mg/kg; settings: in vivo
[5] = Half life in Sprague-Dawley rat at 200 mg/kg, po measured by HPLC-MS/MS analysis; assay type: ADME, organism-based; settings: in vivo
[6] = Cmax in Sprague-Dawley rat at 200 mg/kg, po compound dissolved in DMSO measured after 2 hr by HPLC-MS/MS analysis; assay type: ADME, organism-based; set-up: route oral, time 2 hrs, dose 200 mg/kg; settings: in vivo

`CC(=O)NC(=N)NC(=N)N(C)C` gave an inhibition in vivo at 200 mg/kg [1] of 15.4% and an Activity [2] of 10%.
`CCS(=O)(=O)NC(=N)NC(=N)N(C)C` gave an inhibition in vivo at 200 mg/kg [1] of 34.3% and an Activity [2] of 20%.
In the case of `CC(C)S(=O)(=O)NC(=N)NC(=N)N(C)C`, the inhibition in vivo at 200 mg/kg [1] is reported as 28.2% and the Activity [2] is reported as 40%.
In the case of `Cc1ccc(S(=O)(=O)NC(=N)NC(=N)N(C)C)cc1`, the inhibition in vivo at 200 mg/kg [1] is reported as 16.5% and the Activity [2] is reported as 30%.
For `CN(C)C(=N)NC(=N)N` [METFORMIN], the CLz/F [3] was 42.4 mL/min/kg, the AUC(0-inf) [4] was 78700 ng·h/mL and the inhibition in vivo at 200 mg/kg [1] was 18.5%. The half-life [5] was 3.24 h, the Cmax [6] was 18000 ng/mL and the Activity [2] was 30%.
In the case of `CN(C)C(=N)NC(=N)NS(=O)(=O)C1CCCCC1`, the inhibition in vivo at 200 mg/kg [1] is reported as 19.5% and the Activity [2] is reported as 30%.
`CN(C)C(=N)NC(=N)NS(=O)(=O)C(F)F` showed an inhibition in vivo at 200 mg/kg [1] of 35.5% and an Activity [2] of 30%.
In the case of `CN(C)C(=N)NC(=N)NS(=O)(=O)CCC(F)(F)F`, the inhibition in vivo at 200 mg/kg [1] is reported as 24.4% and the Activity [2] is reported as 20%.
Compound `CN(C)C(=N)NC(=N)NS(C)(=O)=O` has an inhibition in vivo at 200 mg/kg [1] of 47.5% and an Activity [2] of 50%.
For `CN(C)C(=N)NC(=N)NS(=O)(=O)C(Cl)(Cl)Cl`, the inhibition in vivo at 200 mg/kg [1] was 34.9% and the Activity [2] was 40%.
Work on `CN(C)C(=N)NC(=N)NS(=O)(=O)C(F)(F)C(F)(F)C(F)(F)C(F)(F)F` yielded an inhibition in vivo at 200 mg/kg [1] of 9.2% and an Activity [2] of 20%.
Work on `CN(C)C(=N)NC(=N)NC(=O)/C=C/C(=O)O` yielded an inhibition in vivo at 200 mg/kg [1] of 13.5% and an Activity [2] of 20%.
With `Cc1ccc(C(=O)NC(=N)NC(=N)N(C)C)cc1` the inhibition in vivo at 200 mg/kg [1] was 18.3% and the Activity [2] was 20%.
Compound `CN(C)C(=N)NC(=N)NC(=O)C(F)(F)F` has an inhibition in vivo at 200 mg/kg [1] of 16.5% and an Activity [2] of 30%.
With `CN(C)C(=N)NC(=N)/N=C/c1cc(O)c(O)c(O)c1` the inhibition in vivo at 200 mg/kg [1] was 7.1% and the Activity [2] was 0%.
Work on `CN(C)C(=N)NC(=N)NC(=O)CCC(=O)O` yielded an inhibition in vivo at 200 mg/kg [1] of 40.4% and an Activity [2] of 40%.
`CN(C)C(=N)NC(=N)NC(=O)c1ccccc1` gave an inhibition in vivo at 200 mg/kg [1] of 14.2% and an Activity [2] of 20%.
For `CC(=O)Oc1ccccc1C(=O)O` [ASPIRIN], the inhibition in vivo at 200 mg/kg [1] was 38.8% and the Activity [2] was 50%.
In the case of `CN(C)C(=N)NC(=N)/N=C/c1ccc(N(C)C)cc1`, the inhibition in vivo at 200 mg/kg [1] is reported as 6.2% and the Activity [2] is reported as 10%.
Work on `CN(C)C(=N)NC(=N)NC(=O)C1CCCCC1` yielded an inhibition in vivo at 200 mg/kg [1] of 24.1% and an Activity [2] of 20%.
Work on `CN(C)C(=N)NC(=N)NCc1ccccc1` yielded an inhibition in vivo at 200 mg/kg [1] of 12.1% and an Activity [2] of 20%.
In the case of `CN(C)C(=N)NC(=N)NS(=O)(=O)CC(F)(F)F`, the inhibition in vivo at 200 mg/kg [1] is reported as 29.3% and the Activity [2] is reported as 30%.
Compound `CN(C)C(=N)NC(=N)/N=C/c1ccc(O)cc1` has an inhibition in vivo at 200 mg/kg [1] of 11.5% and an Activity [2] of 10%.
Compound `CN(C)C(=N)NC(=N)/N=C/c1ccc(C#N)cc1` has an inhibition in vivo at 200 mg/kg [1] of 9.5% and an Activity [2] of 10%.
